A short description of one series: pH of baked bread. The class given is physicochemical.
A further series deals with mold. The experiment in a line: Mold-free shelf life of packaged bread, inspected daily (days to mold). As to the method:
Bread is prepared using the no-time, straight dough method by mixing the following ingredients in a Hobart A200 mixer with a McDuffy attachment for a total of 8 minutes until full gluten development is obtained: flour (100%), water (68%), granulated sugar (7%), shortening (4%), fresh yeast (2.5%), 30% acetic acid vinegar or 300 grain vinegar (0%, 2%, 1% or 0.5%), and citric acid (0% or 0.1%). Mixed dough is rested for 10 minutes on bench then scaled into two 520 gram dough pieces and rounded by hand. Rounded dough is rested 10 minutes then is sheeted and molded into logs. Sheeted and molded logs are placed into oiled bread pans and placed into proof box (National Manufacturing) and set to 110° F. and 80% relative humidity. Dough is proofed to a consistent height, as measured by a template which was 0.75 inches above the rim of the bread pan. Proof time is considered to be time for dough to touch the top of the template minus initial time in the proof box. Proofed dough is then placed into an oven and baked for 20 minutes at a temperature of 420° F. Internal temperature of the bread exiting the oven is 195° F.-200° F. Baked bread is cooled at room temperature on a wire rack for one hour to an internal temperature of between 95° F. and 100° F. After cooling, bread is sliced and packaged in plastic bags and sealed with twist ties. Packaged bread is stored at room temperature 70° F.-75° F. and visually inspected for mold appearance on a daily basis. Bread is considered as expired/failed upon first sign of mold.
Mixed dough is rested for 10 minutes on bench then scaled into two 520 gram dough pieces and rounded by hand. Rounded dough is rested 10 minutes then sheeted and molded into logs. Sheeted and molded logs are placed into oiled bread pans and placed into proof box (National Manufacturing) set to 110° F. and 80% relative humidity. Dough is proofed to a consistent height, as measured by a template which was 0.75 inches above the rim of the bread pan. Proof time is considered to be time for dough to touch the top of the template minus initial time in the proof box. Proofed dough is then placed into an oven and is baked for 20 minutes at a temperature of 420° F. The internal temperature of the bread exiting the oven is 195° F.-200° F. Baked bread is cooled at room temperature on a wire rack for one hour to an internal temperature of between 95° F. and 100° F. After cooling, the bread is sliced and packaged in plastic bags and sealed with twist ties.
Packaged bread is stored at room temperature 70° F.-75° F. Packaged bread is visually inspected for mold appearance on a daily basis. Bread is considered as expired/failed upon first sign of mold.

The structures appear in SMILES notation.

Consider `CCC(=O)[O-].CCC(=O)[O-].[Ca+2]` [Calcium Propionate, calcium propionate], for which the “pH Bread” value in “pH of baked bread” (Table 4, 0.33%) is given as 5.60; in the series “pH of baked bread” (Table 4, 0.5%) it was 5.45; in “pH of baked bread” (Table 6, 0.33%) it was 5.62; in the series “pH of baked bread” (Table 7, 0.33%), 5.72; in “pH of baked bread” (Table 8, 0.33% (flour basis)), 5.57; in the series “pH of baked bread” (Table 8, 0.50% (flour basis)), 5.57. Besides, the “pH Bread” value in “pH of baked bread” (Table 8, 0.75% (flour basis)) came out at 5.58; in “pH of baked bread” (Table 8, 1.00% (flour basis)), 5.59. Moreover, the “Days to Mold” value in the series on mold (Table 4, 0.33%) worked out at 15 days; in the series with mold (Table 4, 0.5%), 17 days; in the series with mold (Table 6, white pan bread, 0.33%) it was 14 days; in the series on mold (Table 7, white pan bread, 0.33%) it was 14 days; in the series on mold (Table 8, 0.33% (flour basis)), 9 days; in the series with mold (Table 8, 0.50% (flour basis)), 12 days. Also, the “Days to Mold” value turned out to be 23 days in the series with mold (Table 8, 0.75% (flour basis)); 32 days with mold (Table 8, 1.00% (flour basis)); 11 days in the series with mold (Table 9, White Pan Bread, 0.33%); 15 days in the series on mold (Table 10, White Pan Bread, 0.33%); 17 days in the series on mold (Table 10, 0.50%).

The values are drawn from US20130045299A1, “Natural Mold Inhibitor and Methods of Using Same” (priority 2011, published 2013).
